In patent US20240301156A1, “FOAMABLE RESIN COMPOSITION, FOAM BODY, METHOD FOR PRODUCING FOAM BODY, AND FOAMABLE CURING AGENT” (MITSUBISHI GAS CHEMICAL COMPANY, INC., priority 2021, published 2024):

What was measured:
[1] = Maximum carbon dioxide (CO2) release temperature of amine compound (DSC); assay type: physicochemical; details: amine left in air at 23° C., 50% RH for 24 hours; DSC 23 to 250° C., 10° C./minute, nitrogen
Procedure: The amine compound (a1) with carbon dioxide absorbed is heated at a heating rate of 10° C./minute from 23° C. to 250° C., and the temperature at which the amount of heat absorbed due to desorption of carbon dioxide reaches the maximum is measured, and the temperature is defined as the maximum carbon dioxide release temperature. In this regard the amine compound (a1) with carbon dioxide absorbed may be prepared by leaving 5 mmol of the amine compound (a1) to stand in air at 23° C. and 50% RH for 24 hours.
A carbon dioxide detector and a Petri dish were placed in an openable desiccator (inner dimension: 370 mm×260 mm×272 mm). Subsequently the amine compound (5 mmol) was added to the Petri dish in the desiccator and the door was immediately closed to leave the amine compound to stand in the desiccator in an air environment at 23° C. and 50% RH for 24 hours. The initial concentration of carbon dioxide was adjusted to about 400 ppm.
(§1) Then the amine compound was removed from the desiccator to give an amine compound with carbon dioxide absorbed. The maximum carbon dioxide release temperature of the amine compound with carbon dioxide absorbed was measured by subjecting the amine compound to DSC as described below. First, differential scanning calorimetry of the amine compound was performed under conditions of a temperature range of 23 to 250° C., a heating rate of 10° C./minute and a nitrogen atmosphere using a differential thermogravimeter (product name DTG-60 made by Shimadzu Corporation). The temperature at which the amount of heat absorbed due to the desorption of carbon dioxide was the maximum was calculated from the DSC curve obtained, and the temperature was determined as the maximum carbon dioxide release temperature of the amine compound.

[2] = Maximum endothermic temperature of amine compound (DSC); assay type: physicochemical; details: DSC 23 to 350° C., 10° C./minute, nitrogen; evaporation of the amine compound
Procedure: The amine compound (a1) is heated at a heating rate of 10° C./minute from 23° C. to 350° C. and the temperature at which the amount of heat absorbed due to evaporation of the amine compound (a1) reaches the maximum is measured, and the temperature is defined as the maximum endothermic temperature of the amine compound (a1).
as §1, with “The” for “Then the amine compound was removed from the desiccator to give an amine compound with carbon dioxide absorbed. The”, “endothermic” for “carbon dioxide release”, “compound” for “compound with carbon dioxide absorbed”, “350°” for “250°”, “evaporation” for “desorption”, “the amine compound” for “carbon dioxide”

[3] = Amine value of amine compound (JIS K7237-1995 titration); assay type: physicochemical; details: 0.1 N perchloric acid-acetic acid titration
Procedure: The amine value was measured by the following measurement method according to JIS K7237-1995. • (1) 0.1 g of the amine compound was dissolved in 20 mL of acetic acid. • (2) The amine value was calculated by titrating the solution prepared in (1) above with 0.1 N perchloric acid-acetic acid solution using an automatic potentiometric titrator (AT-610 made by Kyoto Electronics Manufacturing Co., Ltd.) (Acid Dissociation Constant (pKa) of Amine Compound)

[4] = Absorption of carbon dioxide into amine compound: percentage increase of mass; assay type: physicochemical; details: amine left to stand in air at 23° C. and 50% RH for a week
Procedure: An amine compound, MXDA (40 mmol), was put in a container and left to stand in an air environment at 23° C. and 50% RH for a week. By doing so MXDA and carbon dioxide in the air were reacted to give a carbonate of MXDA. At that stage, to suppress uneven reaction, the container in which the amine compound was placed was shaken as necessary so as not to leave unreacted MXDA.
Next, increase of the mass of MXDA was measured and the percentage increase of the mass of the amine compound was calculated by the following equation.
Percentage increase of mass of amine compound [% by mass]=100×amount of increase of mass of amine compound (g)/(initial mass of amine compound (g)+amount of increase of mass of amine compound (g))

[5] = Acid dissociation constant (pKa) of amine compound, acid-base titration; details: purified water
Procedure: (§2) The acid dissociation constant of the amine compound (a1) is measured by the following measurement method based on acid-base titration. • (1) 0.2 g of the amine compound (a1) is dissolved in 30 mL of purified water. • (2) The acid dissociation constant (pKa) is calculated by titrating the solution prepared in (1) above with 0.1 N perchloric acid-acetic acid solution using an automatic potentiometric titrator (e.g., AT-610 made by Kyoto Electronics Manufacturing Co., Ltd.).
(§3) The acid dissociation constant of the amine compound was measured by the following measurement method. • (1) 0.2 g of the amine compound was dissolved in 30 mL of purified water. • (2) The acid dissociation constant (pKa) was calculated by titrating the solution prepared in (1) above with 0.1 N perchloric acid-acetic acid solution using an automatic potentiometric titrator (AT-610 made by Kyoto Electronics Manufacturing Co., Ltd.).
(§4) The temperature in the measurement was 25±2° C.

Procedure for physchem: as §2, §3, §4

Row | SMILES | Maximum CO2 release temperature [1] | Maximum endothermic temperature [2] | Amine value [3] | Percentage increase of mass [4] | pKa [5] | pKa (physchem)
1 | NCC1CCCC(CN)C1 (centres unmarked) [1,3-BAC, 1,3-bis(aminomethyl)cyclohexane] | 125.7 °C | 160.9 °C | 789 mg KOH/g | 25.9 % by mass | – | –
2 | NCCN1CCNCC1 [AEP, N-(2-aminoethyl)piperazine] | 81.9 °C | 140.2 °C | 1303 mg KOH/g | 43.7 % by mass | 8.9 | –
3 | CC1(C)CC(N)CC(C)(CN)C1 (centres unmarked) [IPDA, isophoronediamine] | 114.4 °C | 168.8 °C | 659 mg KOH/g | 23.5 % by mass | 10.4 | –
4 | NCc1cccc(CN)c1 [MXDA, metaxylylenediamine] | 135.5 °C | 183.5 °C | 824 mg KOH/g | 24.1 % by mass | – | –
5 | NC1CCC(CC2CCC(N)CC2)CC1 (centres unmarked) [PACM, 4,4′-methylenebis(cyclohexylamine)] | 53.0 °C | 218.5 °C | 533 mg KOH/g | 12.2 % by mass | – | 10.3
